Assay results reported in publication PMC8800111 (The Journal of Biological Chemistry, 2021).

Experiments:
Type in all cases: cell-based
[1] = target: proteins of U3A human fibrosarcoma cells (4462 proteins detected) (Homo sapiens, UniProt Q8TBZ3); conditions: protein WDR20, U3A cells
[2] = target: proteins of U3A human fibrosarcoma cells (4462 proteins detected) (Homo sapiens, UniProt Q8N9N8); conditions: protein EIF1AD; U3A, 10 μM, 2 h
[3] = target: proteins of U3A human fibrosarcoma cells (4462 proteins detected) (Homo sapiens, UniProt O00399); conditions: protein DCTN6, U3A cells
[4] = target: proteins of U3A human fibrosarcoma cells (4462 proteins detected) (Homo sapiens, UniProt P30050); conditions: protein RPL12; soluble abundance after heat, U3A cells
[5] = target: proteins of U3A human fibrosarcoma cells (4462 proteins detected) (Homo sapiens, UniProt P49588); conditions: protein AARS, U3A cells
[6] = target: proteins of U3A human fibrosarcoma cells (4462 proteins detected) (Homo sapiens, UniProt Q658Y4); conditions: protein FAM91A1; soluble abundance after heat, U3A cells
[7] = target: proteins of U3A human fibrosarcoma cells (4462 proteins detected) (Homo sapiens, UniProt Q6P1L8); conditions: protein MRPL14, U3A cells
[8] = target: proteins of U3A human fibrosarcoma cells (4462 proteins detected) (Homo sapiens, UniProt O75533); conditions: protein SF3B1; U3A cells
[9] = target: proteins of U3A human fibrosarcoma cells (4462 proteins detected) (Homo sapiens, UniProt P07948); conditions: protein LYN; U3A cells
[10] = target: proteins of U3A human fibrosarcoma cells (4462 proteins detected) (Homo sapiens, UniProt P54709); conditions: protein ATP1B3; U3A, 10 μM, 2 h
[11] = target: proteins of U3A human fibrosarcoma cells (4462 proteins detected) (Homo sapiens, UniProt Q15814); conditions: protein TBCC; U3A cells
[12] = target: proteins of U3A human fibrosarcoma cells (4462 proteins detected) (Homo sapiens, UniProt P35250); conditions: protein RFC2; U3A cells
[13] = target: proteins of U3A human fibrosarcoma cells (4462 proteins detected) (Homo sapiens, UniProt P41229); conditions: protein KDM5C; U3A cells
[14] = target: proteins of U3A human fibrosarcoma cells (4462 proteins detected) (Homo sapiens, UniProt Q16626); conditions: protein MEA1, U3A cells
[15] = target: proteins of U3A human fibrosarcoma cells (4462 proteins detected) (Homo sapiens, UniProt Q9NQW6); conditions: protein ANLN; soluble abundance after heat, U3A cells
[16] = target: proteins of U3A human fibrosarcoma cells (4462 proteins detected) (Homo sapiens, UniProt Q15041); conditions: protein ARL6IP1; U3A cells
[17] = target: proteins of U3A human fibrosarcoma cells (4462 proteins detected) (Homo sapiens, UniProt Q6P3W2); conditions: protein DNAJC24; ZCSL3, U3A cells
[18] = target: proteins of U3A human fibrosarcoma cells (4462 proteins detected) (Homo sapiens, UniProt P26006); conditions: protein ITGA3; U3A cells
[19] = target: proteins of U3A human fibrosarcoma cells (4462 proteins detected) (Homo sapiens, UniProt O14976); conditions: protein GAK; U3A, 10 μM, 2 h
[20] = target: proteins of U3A human fibrosarcoma cells (4462 proteins detected) (Homo sapiens, UniProt P78371); conditions: protein CCT2; U3A cells
[21] = target: proteins of U3A human fibrosarcoma cells (4462 proteins detected) (Homo sapiens, UniProt Q9NXW2); conditions: protein DNAJB12; soluble abundance after heat, U3A cells
[22] = target: proteins of U3A human fibrosarcoma cells (4462 proteins detected) (Homo sapiens, UniProt Q5JSH3); conditions: protein WDR44, U3A cells
[23] = target: proteins of U3A human fibrosarcoma cells (4462 proteins detected) (Homo sapiens, UniProt O75147); conditions: protein OBSL1, U3A cells
[24] = target: proteins of U3A human fibrosarcoma cells (4462 proteins detected) (Homo sapiens, UniProt Q9NYY8); conditions: protein FASTKD2; U3A cells
[25] = target: proteins of U3A human fibrosarcoma cells (4462 proteins detected) (Homo sapiens, UniProt P11182); conditions: protein DBT; U3A cells
[26] = target: proteins of U3A human fibrosarcoma cells (4462 proteins detected) (Homo sapiens, UniProt Q9BQG0); conditions: protein MYBBP1A; U3A, 10 μM, 2 h
[27] = target: proteins of U3A human fibrosarcoma cells (4462 proteins detected) (Homo sapiens, UniProt O00567); conditions: protein NOP56; U3A cells
[28] = target: proteins of U3A human fibrosarcoma cells (4462 proteins detected) (Homo sapiens, UniProt O14965); conditions: protein AURKA; soluble abundance after heat, U3A cells
[29] = target: proteins of U3A human fibrosarcoma cells (4462 proteins detected) (Homo sapiens, UniProt Q15382); conditions: protein RHEB; U3A, 10 μM, 2 h
[30] = target: proteins of U3A human fibrosarcoma cells (4462 proteins detected) (Homo sapiens, UniProt Q9UJ68); conditions: protein MSRA, U3A cells

Chain of proteins of U3A human fibrosarcoma cells (4462 proteins detected) (Homo sapiens, UniProt Q8N9N8) (Q8N9N8 whole entry): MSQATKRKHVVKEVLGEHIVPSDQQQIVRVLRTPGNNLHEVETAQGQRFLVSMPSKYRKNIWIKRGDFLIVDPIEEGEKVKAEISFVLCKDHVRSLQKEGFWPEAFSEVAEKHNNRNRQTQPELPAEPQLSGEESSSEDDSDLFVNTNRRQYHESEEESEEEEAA
Chain of proteins of U3A human fibrosarcoma cells (4462 proteins detected) (Homo sapiens, UniProt Q8TBZ3) (Q8TBZ3 whole entry): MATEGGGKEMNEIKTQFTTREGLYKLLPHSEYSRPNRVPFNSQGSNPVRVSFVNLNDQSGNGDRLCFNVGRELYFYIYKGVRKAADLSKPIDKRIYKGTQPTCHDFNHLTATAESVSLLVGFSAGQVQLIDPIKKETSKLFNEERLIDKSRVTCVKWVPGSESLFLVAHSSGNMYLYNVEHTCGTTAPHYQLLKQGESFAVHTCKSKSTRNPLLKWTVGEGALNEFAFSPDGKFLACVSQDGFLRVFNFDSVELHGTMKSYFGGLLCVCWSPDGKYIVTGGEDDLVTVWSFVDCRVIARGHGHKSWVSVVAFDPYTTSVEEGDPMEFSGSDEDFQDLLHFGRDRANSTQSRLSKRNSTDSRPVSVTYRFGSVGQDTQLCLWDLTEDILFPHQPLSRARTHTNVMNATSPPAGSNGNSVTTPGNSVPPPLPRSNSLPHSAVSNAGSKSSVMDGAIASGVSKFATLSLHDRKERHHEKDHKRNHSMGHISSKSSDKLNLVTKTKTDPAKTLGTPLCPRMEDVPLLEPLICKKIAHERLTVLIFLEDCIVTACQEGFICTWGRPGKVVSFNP
Chain of proteins of U3A human fibrosarcoma cells (4462 proteins detected) (Homo sapiens, UniProt O75147) (O75147 whole entry): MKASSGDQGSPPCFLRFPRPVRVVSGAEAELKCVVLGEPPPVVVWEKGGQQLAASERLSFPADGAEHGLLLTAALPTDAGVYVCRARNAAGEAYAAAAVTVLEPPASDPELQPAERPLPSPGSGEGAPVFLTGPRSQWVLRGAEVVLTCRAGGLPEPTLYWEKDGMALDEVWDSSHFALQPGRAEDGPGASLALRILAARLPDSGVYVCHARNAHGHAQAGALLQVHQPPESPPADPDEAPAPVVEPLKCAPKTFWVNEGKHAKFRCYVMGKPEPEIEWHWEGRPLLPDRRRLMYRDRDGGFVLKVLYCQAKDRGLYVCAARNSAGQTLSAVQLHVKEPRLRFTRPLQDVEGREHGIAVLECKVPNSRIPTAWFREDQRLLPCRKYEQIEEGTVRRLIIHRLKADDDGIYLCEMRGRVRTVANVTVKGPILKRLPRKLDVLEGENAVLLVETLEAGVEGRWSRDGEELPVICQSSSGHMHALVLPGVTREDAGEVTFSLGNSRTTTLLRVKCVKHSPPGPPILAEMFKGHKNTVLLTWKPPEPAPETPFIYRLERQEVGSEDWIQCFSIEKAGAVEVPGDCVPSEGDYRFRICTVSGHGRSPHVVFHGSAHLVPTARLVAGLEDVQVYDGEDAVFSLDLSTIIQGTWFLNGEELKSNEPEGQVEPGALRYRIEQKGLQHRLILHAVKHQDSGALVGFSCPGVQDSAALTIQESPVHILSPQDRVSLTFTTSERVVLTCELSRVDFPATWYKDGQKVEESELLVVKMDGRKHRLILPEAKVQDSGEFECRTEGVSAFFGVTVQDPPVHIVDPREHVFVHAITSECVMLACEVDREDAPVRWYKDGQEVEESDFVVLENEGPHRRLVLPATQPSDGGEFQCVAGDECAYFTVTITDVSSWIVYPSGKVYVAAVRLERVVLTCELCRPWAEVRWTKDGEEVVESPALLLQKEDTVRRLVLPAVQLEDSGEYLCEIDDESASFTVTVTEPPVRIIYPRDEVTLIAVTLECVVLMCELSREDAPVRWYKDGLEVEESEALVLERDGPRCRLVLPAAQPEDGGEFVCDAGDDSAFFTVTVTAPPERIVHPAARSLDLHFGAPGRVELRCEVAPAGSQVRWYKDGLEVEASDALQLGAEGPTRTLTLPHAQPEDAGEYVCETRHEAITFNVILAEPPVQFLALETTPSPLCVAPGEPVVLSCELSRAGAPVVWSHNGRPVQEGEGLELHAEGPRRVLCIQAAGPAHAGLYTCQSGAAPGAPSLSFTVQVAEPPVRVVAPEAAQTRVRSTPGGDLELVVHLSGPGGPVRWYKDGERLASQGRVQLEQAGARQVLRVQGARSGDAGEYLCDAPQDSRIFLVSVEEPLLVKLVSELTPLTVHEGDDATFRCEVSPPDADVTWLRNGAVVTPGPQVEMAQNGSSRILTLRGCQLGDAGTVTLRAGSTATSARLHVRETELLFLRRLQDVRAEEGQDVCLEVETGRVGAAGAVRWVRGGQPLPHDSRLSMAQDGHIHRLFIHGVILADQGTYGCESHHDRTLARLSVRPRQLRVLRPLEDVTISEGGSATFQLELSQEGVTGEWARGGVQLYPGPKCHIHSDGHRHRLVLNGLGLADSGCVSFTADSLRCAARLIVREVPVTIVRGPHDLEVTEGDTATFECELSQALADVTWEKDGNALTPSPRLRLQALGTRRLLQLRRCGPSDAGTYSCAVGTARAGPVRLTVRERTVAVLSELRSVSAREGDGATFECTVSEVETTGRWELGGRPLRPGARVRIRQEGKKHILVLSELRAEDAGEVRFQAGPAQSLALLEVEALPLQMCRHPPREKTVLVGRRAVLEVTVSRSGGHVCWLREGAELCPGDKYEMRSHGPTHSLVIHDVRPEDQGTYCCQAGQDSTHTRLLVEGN
Chain of proteins of U3A human fibrosarcoma cells (4462 proteins detected) (Homo sapiens, UniProt P54709) (P54709 whole entry): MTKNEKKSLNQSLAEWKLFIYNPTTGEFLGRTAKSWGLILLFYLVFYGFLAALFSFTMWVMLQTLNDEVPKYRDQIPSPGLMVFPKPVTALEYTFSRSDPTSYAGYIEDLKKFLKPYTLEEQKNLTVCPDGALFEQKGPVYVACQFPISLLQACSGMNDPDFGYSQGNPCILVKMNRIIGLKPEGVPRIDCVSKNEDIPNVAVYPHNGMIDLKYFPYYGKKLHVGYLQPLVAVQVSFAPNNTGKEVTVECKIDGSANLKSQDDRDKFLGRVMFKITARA
Chain of proteins of U3A human fibrosarcoma cells (4462 proteins detected) (Homo sapiens, UniProt Q9NQW6) (Q9NQW6 whole entry): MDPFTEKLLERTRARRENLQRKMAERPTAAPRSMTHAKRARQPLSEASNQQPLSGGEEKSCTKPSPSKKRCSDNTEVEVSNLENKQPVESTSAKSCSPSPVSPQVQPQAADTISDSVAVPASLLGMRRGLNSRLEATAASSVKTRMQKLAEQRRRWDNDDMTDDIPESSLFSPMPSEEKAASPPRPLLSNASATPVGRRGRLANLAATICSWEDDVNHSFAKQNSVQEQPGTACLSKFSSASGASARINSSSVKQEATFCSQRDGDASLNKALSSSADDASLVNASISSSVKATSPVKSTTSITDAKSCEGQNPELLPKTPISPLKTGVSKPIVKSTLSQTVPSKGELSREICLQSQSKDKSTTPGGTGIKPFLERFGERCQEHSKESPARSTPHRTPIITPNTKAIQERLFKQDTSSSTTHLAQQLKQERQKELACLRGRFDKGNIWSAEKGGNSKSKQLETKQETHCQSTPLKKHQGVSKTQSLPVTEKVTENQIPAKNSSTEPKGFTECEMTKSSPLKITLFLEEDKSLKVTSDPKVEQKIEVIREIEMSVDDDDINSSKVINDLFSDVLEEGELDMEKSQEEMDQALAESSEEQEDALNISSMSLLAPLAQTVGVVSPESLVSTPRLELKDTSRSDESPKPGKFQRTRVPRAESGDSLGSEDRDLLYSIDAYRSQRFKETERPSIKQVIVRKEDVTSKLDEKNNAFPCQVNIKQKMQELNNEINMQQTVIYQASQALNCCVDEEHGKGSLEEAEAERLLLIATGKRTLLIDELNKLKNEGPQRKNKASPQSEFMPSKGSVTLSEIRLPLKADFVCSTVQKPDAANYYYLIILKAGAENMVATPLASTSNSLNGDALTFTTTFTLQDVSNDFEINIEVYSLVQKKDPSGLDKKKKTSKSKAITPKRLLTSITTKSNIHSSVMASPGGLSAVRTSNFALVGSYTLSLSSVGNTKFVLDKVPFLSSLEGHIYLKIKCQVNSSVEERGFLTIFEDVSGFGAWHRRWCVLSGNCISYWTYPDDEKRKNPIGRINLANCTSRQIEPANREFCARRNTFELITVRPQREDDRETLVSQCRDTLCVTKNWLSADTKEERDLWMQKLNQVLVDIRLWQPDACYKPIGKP
Chain of proteins of U3A human fibrosarcoma cells (4462 proteins detected) (Homo sapiens, UniProt P78371) (P78371 whole entry): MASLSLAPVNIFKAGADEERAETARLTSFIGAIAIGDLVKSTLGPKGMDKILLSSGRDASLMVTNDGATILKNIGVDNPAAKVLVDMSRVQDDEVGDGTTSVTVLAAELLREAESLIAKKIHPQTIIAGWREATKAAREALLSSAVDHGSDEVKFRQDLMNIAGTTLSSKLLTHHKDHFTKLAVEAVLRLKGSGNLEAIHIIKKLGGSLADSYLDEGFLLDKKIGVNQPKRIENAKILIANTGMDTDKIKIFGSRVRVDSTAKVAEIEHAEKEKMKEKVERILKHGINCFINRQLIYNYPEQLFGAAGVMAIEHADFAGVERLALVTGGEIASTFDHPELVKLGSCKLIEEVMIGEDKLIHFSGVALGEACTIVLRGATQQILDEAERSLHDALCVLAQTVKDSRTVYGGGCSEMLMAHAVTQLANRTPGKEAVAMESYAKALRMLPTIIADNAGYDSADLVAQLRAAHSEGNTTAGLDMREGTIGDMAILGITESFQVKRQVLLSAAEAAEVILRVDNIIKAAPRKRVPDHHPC
Chain of proteins of U3A human fibrosarcoma cells (4462 proteins detected) (Homo sapiens, UniProt Q6P3W2) (Q6P3W2 whole entry): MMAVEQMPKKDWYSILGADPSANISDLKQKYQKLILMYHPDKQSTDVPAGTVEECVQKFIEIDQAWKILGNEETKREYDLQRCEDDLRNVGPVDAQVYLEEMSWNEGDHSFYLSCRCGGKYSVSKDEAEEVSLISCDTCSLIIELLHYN
Chain of proteins of U3A human fibrosarcoma cells (4462 proteins detected) (Homo sapiens, UniProt O00399) (O00399 whole entry): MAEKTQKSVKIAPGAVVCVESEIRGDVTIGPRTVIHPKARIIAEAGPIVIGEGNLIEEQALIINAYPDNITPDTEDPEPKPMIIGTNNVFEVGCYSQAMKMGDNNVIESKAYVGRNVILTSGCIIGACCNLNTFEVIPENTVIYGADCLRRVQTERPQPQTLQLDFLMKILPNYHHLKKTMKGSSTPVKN

CCc1nc(N)nc(N)c1-c1ccc(Cl)cc1 [pyrimethamine]
Log2 (PYR/DMSO) [1]: -0.04
Log2 (PYR/DMSO), EIF1AD [2]: -0.14
Log2 (PYR/DMSO) [3]: -0.04
Log2 (PYR/DMSO) [4]: 0.14
Log2 (PYR/DMSO) [5]: -0.04
Log2 (PYR/DMSO) [6]: 0.14
Log2 (PYR/DMSO) [7]: -0.04
Log2 (PYR/DMSO) [8]: 0.16
Log2 (PYR/DMSO) [9]: 0.16
Log2 (PYR/DMSO), ATP1B3 [10]: 0.27
Log2 (PYR/DMSO) [11]: 0.20
Log2 (PYR/DMSO) [12]: 0.17
Log2 (PYR/DMSO) [13]: 0.18
Log2 (PYR/DMSO) [14]: -0.04
Log2 (PYR/DMSO) [15]: 0.14
Log2 (PYR/DMSO) [16]: 0.17
Log2 (PYR/DMSO) [17]: -0.04
Log2 (PYR/DMSO) [18]: 0.16
Log2 (PYR/DMSO), GAK [19]: -0.20
Log2 (PYR/DMSO) [20]: 0.17
Log2 (PYR/DMSO) [21]: 0.15
Log2 (PYR/DMSO) [22]: -0.05
Log2 (PYR/DMSO) [23]: -0.04
Log2 (PYR/DMSO) [24]: 0.21
Log2 (PYR/DMSO) [25]: 0.16
Log2 (PYR/DMSO), MYBBP1A [26]: 0.26
Log2 (PYR/DMSO) [27]: 0.21
Log2 (PYR/DMSO) [28]: 0.15
Log2 (PYR/DMSO), RHEB [29]: -0.45
Log2 (PYR/DMSO) [30]: -0.04
